# How the values were obtained:
# EGFR = EGFR (Homo sapiens, UniProt P00533); assay: EGFR signaling (pEGFR Tyr1068/total EGFR MSD) in A431 cells; format: cell-based; set-up: endogenous in cells; host or cells: A431, N87; conditions: for EC50: A431 cells, read-out: A431 pEGFR EC50; for Selectivity A431 EC50/BT474 EC50: ratio A431 pEGFR EC50 to BT474 pHER2 EC50; for Selectivity A431 EC50/HEKYVMA EC50: ratio A431 pEGFR EC50 to HEK YVMA pHER2 EC50
# Procedure, shortened: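 Serum-starved A431 cells were pretreated 1.5 h in 1% FBS with compound (0.005–10 μM, 0.1% DMSO), then stimulated with 100 ng/mL human EGF for 10 min. Lysate pEGFR Tyr1068 was measured by MSD and normalized to total EGFR as % DMSO control; EC50 from variable-slope sigmoidal fit.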
# HER2YVMA = HER2YVMA (Homo sapiens, UniProt P04626, INS775YVMA); assay: Enzymatic assay HER2YVMA (method b); format: biochemical; set-up: purchased Viva biotech, Shanghai, China custom purification; conditions: [HER2YVMA]=5 nM, [ATP]=25 μM, [Peptide 22]=1 μM
# HER2YVMA, sequence (P04626 with tags, fused parts or gaps INS775YVMA): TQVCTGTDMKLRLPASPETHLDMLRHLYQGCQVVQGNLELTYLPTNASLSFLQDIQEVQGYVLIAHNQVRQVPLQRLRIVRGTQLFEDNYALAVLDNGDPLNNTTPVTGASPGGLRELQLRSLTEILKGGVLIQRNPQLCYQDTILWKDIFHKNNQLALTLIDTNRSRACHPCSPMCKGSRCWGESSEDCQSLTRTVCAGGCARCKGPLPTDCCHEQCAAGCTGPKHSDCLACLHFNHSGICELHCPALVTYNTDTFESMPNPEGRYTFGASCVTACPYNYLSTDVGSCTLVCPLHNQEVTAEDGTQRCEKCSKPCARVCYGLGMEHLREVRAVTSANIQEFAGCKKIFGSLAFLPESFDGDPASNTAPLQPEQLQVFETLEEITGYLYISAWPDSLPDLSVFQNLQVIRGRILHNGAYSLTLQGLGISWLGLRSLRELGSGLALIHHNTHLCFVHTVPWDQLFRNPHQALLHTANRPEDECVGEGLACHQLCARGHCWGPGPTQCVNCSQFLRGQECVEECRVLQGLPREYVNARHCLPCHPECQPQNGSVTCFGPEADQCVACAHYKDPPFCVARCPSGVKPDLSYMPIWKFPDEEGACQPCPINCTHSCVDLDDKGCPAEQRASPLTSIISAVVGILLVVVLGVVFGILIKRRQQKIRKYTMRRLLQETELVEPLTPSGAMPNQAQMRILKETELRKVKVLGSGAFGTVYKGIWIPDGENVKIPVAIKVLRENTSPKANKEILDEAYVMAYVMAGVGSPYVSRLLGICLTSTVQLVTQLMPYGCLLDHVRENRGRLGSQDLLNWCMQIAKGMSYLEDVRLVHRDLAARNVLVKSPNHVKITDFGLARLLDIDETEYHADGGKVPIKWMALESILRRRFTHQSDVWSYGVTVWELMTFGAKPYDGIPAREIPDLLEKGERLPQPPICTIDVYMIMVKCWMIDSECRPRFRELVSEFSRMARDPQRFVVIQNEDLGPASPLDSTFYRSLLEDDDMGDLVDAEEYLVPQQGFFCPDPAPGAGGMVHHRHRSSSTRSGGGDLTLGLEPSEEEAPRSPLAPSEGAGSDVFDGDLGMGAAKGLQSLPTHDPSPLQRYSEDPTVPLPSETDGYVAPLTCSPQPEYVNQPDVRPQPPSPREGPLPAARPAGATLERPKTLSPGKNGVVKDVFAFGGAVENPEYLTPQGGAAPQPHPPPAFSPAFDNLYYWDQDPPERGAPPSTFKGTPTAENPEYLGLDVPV
# Procedure, shortened: (§1)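 Microfluidic mobility-shift kinase assay with Peptide 22 (1 μM) in HEPES pH 7.5, MnCl2, MgCl2, Tween 20, TCEP. HER2 WT 12.5 nM and HER2 YVMA 5 nM each used 25 μM ATP; EGFR WT 2 nM used 1 mM ATP. IC50 came from initial-velocity (0–3600 s) percent inhibition, fitted to a variable-slope model.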
# EGFR WT = biological target: T1, EGFR WT (Homo sapiens, UniProt P00533); assay: Enzymatic assay EGFR WT (method c); format: biochemical; conditions: [EGFR WT]=2 nM, [ATP]=1 mM, [Peptide 22]=1 μM
# T1 construct: purchased Thermo Fisher, Carlsbad, CA ERBB1 PR7295B
# T1 sequence (P00533 25-1210): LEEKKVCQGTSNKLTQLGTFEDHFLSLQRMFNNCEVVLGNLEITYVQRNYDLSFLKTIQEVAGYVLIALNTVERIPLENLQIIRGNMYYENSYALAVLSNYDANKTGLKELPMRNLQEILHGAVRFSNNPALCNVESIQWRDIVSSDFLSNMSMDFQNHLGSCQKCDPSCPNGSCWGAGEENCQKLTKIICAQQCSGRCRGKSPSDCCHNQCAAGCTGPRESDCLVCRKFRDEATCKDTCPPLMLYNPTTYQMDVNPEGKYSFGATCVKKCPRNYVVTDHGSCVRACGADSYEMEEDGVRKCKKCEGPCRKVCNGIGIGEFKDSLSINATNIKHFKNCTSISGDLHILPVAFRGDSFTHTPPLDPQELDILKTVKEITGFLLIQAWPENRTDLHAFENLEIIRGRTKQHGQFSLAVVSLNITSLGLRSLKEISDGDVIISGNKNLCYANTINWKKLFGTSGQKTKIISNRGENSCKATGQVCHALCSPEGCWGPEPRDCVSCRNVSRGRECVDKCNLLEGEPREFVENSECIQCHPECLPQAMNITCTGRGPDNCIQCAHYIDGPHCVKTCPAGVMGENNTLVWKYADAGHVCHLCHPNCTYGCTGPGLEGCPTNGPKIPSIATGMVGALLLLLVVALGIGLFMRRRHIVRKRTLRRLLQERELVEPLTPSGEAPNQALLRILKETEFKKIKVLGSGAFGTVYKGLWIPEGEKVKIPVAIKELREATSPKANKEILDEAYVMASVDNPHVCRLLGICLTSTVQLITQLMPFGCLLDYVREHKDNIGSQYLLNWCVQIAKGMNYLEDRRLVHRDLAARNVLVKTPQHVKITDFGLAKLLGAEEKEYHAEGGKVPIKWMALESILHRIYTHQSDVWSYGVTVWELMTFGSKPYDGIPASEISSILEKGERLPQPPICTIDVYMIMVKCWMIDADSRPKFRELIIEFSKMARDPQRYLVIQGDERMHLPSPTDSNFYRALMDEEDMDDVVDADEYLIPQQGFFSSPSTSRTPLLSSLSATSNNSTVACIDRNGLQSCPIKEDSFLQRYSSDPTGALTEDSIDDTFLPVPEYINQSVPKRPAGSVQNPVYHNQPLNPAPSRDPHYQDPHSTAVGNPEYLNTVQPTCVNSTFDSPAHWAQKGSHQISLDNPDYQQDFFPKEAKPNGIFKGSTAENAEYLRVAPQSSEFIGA
# Procedure, shortened: as §1
# EGFR, sequence (P00533 25-1210): as above
structure (smiles),measurement,setting,value
Cc1ccc(Oc2ccc(Nc3ncnc4sc5c(c34)CCN(C(=O)/C=C/CN3CCC(CO)(CO)CC3)C5)cc2C)cn1 [Compound 135],EC50,EGFR,1 to 10 µM
same,Selectivity A431 EC50/BT474 EC50,EGFR,B (B: ≥ 20 and < 100)
same,Selectivity A431 EC50/HEKYVMA EC50,EGFR,D (D: ≥ 5 and < 10)
same,IC50,HER2YVMA,< 0.1 µM
same,IC50,EGFR WT,> 10 µM
Cc1ccc(Oc2ccc(Nc3ncnc4sc5c(c34)CCN(C(=O)/C=C/CN3CCO[C@H](CO)C3)C5)cc2C)cn1 [Compound 136],EC50,EGFR,0.1 to 1 µM
same,Selectivity A431 EC50/BT474 EC50,EGFR,B (B: ≥ 20 and < 100)
same,Selectivity A431 EC50/HEKYVMA EC50,EGFR,C (C: ≥ 10 and < 20)
same,IC50,HER2YVMA,< 0.1 µM
same,IC50,EGFR WT,> 10 µM
CCN(CC)C/C=C/C(=O)N1CCc2c(sc3ncnc(Nc4ccc(Oc5ccc(OC)nc5)c(C)c4)c23)C1 [Compound 137],EC50,EGFR,0.1 to 1 µM
same,Selectivity A431 EC50/BT474 EC50,EGFR,D (D: ≥ 5 and < 10)
same,Selectivity A431 EC50/HEKYVMA EC50,EGFR,D (D: ≥ 5 and < 10)
same,IC50,HER2YVMA,< 0.1 µM
same,IC50,EGFR WT,> 10 µM
"Cc1cc(Nc2ncnc3sc4c(c23)CCN(C(=O)/C=C/CN(C)C)C4)ccc1Oc1ccn2ncnc2c1 [Compound 138, (E)-1-(4-((4-([1,2,4]triazolo[1,5-a]pyridin-7-yloxy)-3-methylphenyl)amino)-5,8-dihydropyrido[4′,3′:4,5]thieno[2,3-d]pyrimidin-7(6H)-yl)-4-(dimethylamino)but-2-en-1-one]",EC50,EGFR,0.1 to 1 µM
same,Selectivity A431 EC50/BT474 EC50,EGFR,B (B: ≥ 20 and < 100)
same,Selectivity A431 EC50/HEKYVMA EC50,EGFR,A (A: ≥100)
same,IC50,HER2YVMA,< 0.1 µM
same,IC50,EGFR WT,> 10 µM
C#CCOCCN(C)C/C=C/C(=O)N1CCc2c(sc3ncnc(Nc4ccc(Oc5ccc(C)nc5)c(C)c4)c23)C1 [Compound 139],EC50,EGFR,< 0.1 µM
same,Selectivity A431 EC50/BT474 EC50,EGFR,B (B: ≥ 20 and < 100)
same,Selectivity A431 EC50/HEKYVMA EC50,EGFR,B (B: ≥ 20 and < 100)
same,IC50,HER2YVMA,< 0.1 µM
same,IC50,EGFR WT,> 10 µM
COc1ccc(Oc2ccc(Nc3ncnc4sc5c(c34)CCN(C(=O)/C=C/CN3CC[C@H](CO)C3)C5)cc2C)cn1 [Compound 140],EC50,EGFR,0.1 to 1 µM
same,Selectivity A431 EC50/BT474 EC50,EGFR,B (B: ≥ 20 and < 100)
same,Selectivity A431 EC50/HEKYVMA EC50,EGFR,C (C: ≥ 10 and < 20)
same,IC50,HER2YVMA,< 0.1 µM
same,IC50,EGFR WT,> 10 µM
"Cc1ccc(Oc2ccc(Nc3ncnc4sc5c(c34)C(C)N(C(=O)/C=C/CN(C)C)C5)cc2C)cn1 (centres unmarked) [Compound 141, (E)-4-(dimethylamino)-1-(5-methyl-4-((3-methyl-4-((6-methylpyridin-3-yl)oxy)phenyl)amino)-5,7-dihydro-6H-pyrrolo[3′,4′:4,5]thieno[2,3-d]pyrimidin-6-yl)but-2-en-1-one]",EC50,EGFR,0.1 to 1 µM
same,Selectivity A431 EC50/BT474 EC50,EGFR,B (B: ≥ 20 and < 100)
same,Selectivity A431 EC50/HEKYVMA EC50,EGFR,B (B: ≥ 20 and < 100)
same,IC50,HER2YVMA,< 0.1 µM
same,IC50,EGFR WT,> 10 µM
"C=CC(=O)N1Cc2sc3ncnc(Nc4ccc(Oc5ccc(C)nc5)c(C)c4)c3c2C(C)C1 (centres unmarked) [Compound 142, 1-(5-methyl-4-((3-methyl-4-((6-methylpyridin-3-yl)oxy)phenyl)amino)-5,6-dihydropyrido[4′,3′:4,5]thieno[2,3-d]pyrimidin-7(8H)-yl)prop-2-en-1-one]",EC50,EGFR,0.1 to 1 µM
same,Selectivity A431 EC50/BT474 EC50,EGFR,B (B: ≥ 20 and < 100)
same,Selectivity A431 EC50/HEKYVMA EC50,EGFR,B (B: ≥ 20 and < 100)
same,IC50,HER2YVMA,< 0.1 µM
same,IC50,EGFR WT,1 to 10 µM
COc1ccc(Oc2ccc(Nc3ncnc4sc5c(c34)CCN(C(=O)/C=C/CN3CC[C@@H](CO)C3)C5)cc2C)cn1 [Compound 143],EC50,EGFR,< 0.1 µM
same,Selectivity A431 EC50/BT474 EC50,EGFR,C (C: ≥ 10 and < 20)
same,Selectivity A431 EC50/HEKYVMA EC50,EGFR,E (E: >1 and < 5)
same,IC50,HER2YVMA,< 0.1 µM
same,IC50,EGFR WT,1 to 10 µM
Cc1ccc(Oc2ccc(Nc3ncnc4sc5c(c34)CCN(C(=O)/C=C/CN3CCO[C@@H](CO)C3)C5)cc2C)cn1 [Compound 144],EC50,EGFR,0.1 to 1 µM
same,Selectivity A431 EC50/BT474 EC50,EGFR,B (B: ≥ 20 and < 100)
same,Selectivity A431 EC50/HEKYVMA EC50,EGFR,D (D: ≥ 5 and < 10)
same,IC50,HER2YVMA,0.1 to 1 µM
same,IC50,EGFR WT,> 10 µM
Cc1ccc(Oc2ccc(Nc3ncnc4sc5c(c34)CCN(C(=O)/C=C/CN3CCCC(F)(CO)C3)C5)cc2C)cn1 (centres unmarked) [Compound 150],EC50,EGFR,0.1 to 1 µM
same,Selectivity A431 EC50/BT474 EC50,EGFR,B (B: ≥ 20 and < 100)
same,Selectivity A431 EC50/HEKYVMA EC50,EGFR,E (E: >1 and < 5)
same,IC50,HER2YVMA,< 0.1 µM
same,IC50,EGFR WT,1 to 10 µM
Cc1ccc(Oc2ccc(Nc3ncnc4sc5c(c34)CCN(C(=O)/C=C/CN3CC(F)(CO)C3)C5)cc2C)cn1 [Compound 151],EC50,EGFR,0.1 to 1 µM
same,Selectivity A431 EC50/BT474 EC50,EGFR,B (B: ≥ 20 and < 100)
same,Selectivity A431 EC50/HEKYVMA EC50,EGFR,E (E: >1 and < 5)
same,IC50,HER2YVMA,< 0.1 µM
same,IC50,EGFR WT,> 10 µM
"COc1ccc(Oc2ccc(Nc3ncnc4sc5c(c34)C(C)CN(C(=O)/C=C/CN(C)C)C5)cc2C)cn1 (centres unmarked) [Compound 152, (E)-4-(dimethylamino)-1-(4-((4-((6-methoxypyridin-3-yl)oxy)-3-methylphenyl)amino)-5-methyl-5,8-dihydropyrido[4′,3′:4,5]thieno[2,3-d]pyrimidin-7(6H)-yl)but-2-en-1-one]",EC50,EGFR,0.1 to 1 µM
same,Selectivity A431 EC50/BT474 EC50,EGFR,C (C: ≥ 10 and < 20)
same,Selectivity A431 EC50/HEKYVMA EC50,EGFR,C (C: ≥ 10 and < 20)
same,IC50,HER2YVMA,< 0.1 µM
same,IC50,EGFR WT,> 10 µM
"Cc1ccc(Oc2ccc(Nc3ncnc4sc5c(c34)CN(C(=O)/C=C/CN(C)C)C5C)cc2C)cn1 (centres unmarked) [Compound 153, (E)-4-(dimethylamino)-1-(7-methyl-4-((3-methyl-4-((6-methylpyridin-3-yl)oxy)phenyl)amino)-5,7-dihydro-6H-pyrrolo[3′,4′:4,5]thieno[2,3-d]pyrimidin-6-yl)but-2-en-1-one]",EC50,EGFR,0.1 to 1 µM
same,Selectivity A431 EC50/BT474 EC50,EGFR,B (B: ≥ 20 and < 100)
same,Selectivity A431 EC50/HEKYVMA EC50,EGFR,C (C: ≥ 10 and < 20)
same,IC50,HER2YVMA,< 0.1 µM
same,IC50,EGFR WT,> 10 µM
Cc1ccc(Oc2ccc(Nc3ncnc4sc5c(c34)CCN(C(=O)/C=C/CN3CCC[C@@H](CO)C3)C5)cc2C)cn1 [Compound 154],EC50,EGFR,< 0.1 µM
same,Selectivity A431 EC50/BT474 EC50,EGFR,C (C: ≥ 10 and < 20)
same,Selectivity A431 EC50/HEKYVMA EC50,EGFR,E (E: >1 and < 5)
same,IC50,HER2YVMA,< 0.1 µM
same,IC50,EGFR WT,> 10 µM
Cc1ccc(Oc2ccc(Nc3ncnc4sc5c(c34)CCN(C(=O)/C=C/CN3CCC[C@H](CO)C3)C5)cc2C)cn1 [Compound 155],EC50,EGFR,< 0.1 µM
same,Selectivity A431 EC50/BT474 EC50,EGFR,B (B: ≥ 20 and < 100)
same,Selectivity A431 EC50/HEKYVMA EC50,EGFR,E (E: >1 and < 5)
same,IC50,HER2YVMA,< 0.1 µM
same,IC50,EGFR WT,> 10 µM
"Cc1cc(Nc2ncnc3sc4c(c23)CCN(C(=O)/C=C/CN(C)C)C4)ccc1Oc1ccc(N(C)C)nc1 [Compound 158, (E)-4-(dimethylamino)-1-(4-((4-((6-(dimethylamino)pyridin-3-yl)oxy)-3-methylphenyl)amino)-5,8-dihydropyrido[4′,3′:4,5]thieno[2,3-d]pyrimidin-7(6H)-yl)but-2-en-1-one]",EC50,EGFR,0.1 to 1 µM
same,Selectivity A431 EC50/BT474 EC50,EGFR,B (B: ≥ 20 and < 100)
same,Selectivity A431 EC50/HEKYVMA EC50,EGFR,B (B: ≥ 20 and < 100)
same,IC50,HER2YVMA,< 0.1 µM
same,IC50,EGFR WT,1 to 10 µM
COc1ccc(Oc2ccc(Nc3ncnc4sc5c(c34)CCN(C(=O)/C=C/CN(C)C(C)(C)C)C5)cc2C)cn1 [Compound 163],EC50,EGFR,< 0.1 µM
same,Selectivity A431 EC50/BT474 EC50,EGFR,D (D: ≥ 5 and < 10)
same,Selectivity A431 EC50/HEKYVMA EC50,EGFR,E (E: >1 and < 5)
same,IC50,HER2YVMA,< 0.1 µM
same,IC50,EGFR WT,> 10 µM
COc1ccc(Oc2ccc(Nc3ncnc4sc5c(c34)CCN(C(=O)/C=C/CN3CCOCC3)C5)cc2C)cn1 [Compound 164],EC50,EGFR,0.1 to 1 µM
same,Selectivity A431 EC50/BT474 EC50,EGFR,C (C: ≥ 10 and < 20)
same,Selectivity A431 EC50/HEKYVMA EC50,EGFR,D (D: ≥ 5 and < 10)
same,IC50,HER2YVMA,0.1 to 1 µM
same,IC50,EGFR WT,> 10 µM
"Cc1ccc(Oc2ccc(Nc3ncnc4sc5c(c34)CCN(C(=O)/C=C/CN(C)C)CC5)cc2Cl)cn1 [Compound 167, (E)-1-(4-((3-Chloro-4-((6-methylpyridin-3-yl)oxy)phenyl)amino)-8,9-dihydro-5H-pyrimido[5′,4′:4,5]thieno[2,3-d]azepin-7(6H)-yl)-4-(dimethylamino)but-2-en-1-one]",EC50,EGFR,0.1 to 1 µM
same,Selectivity A431 EC50/BT474 EC50,EGFR,B (B: ≥ 20 and < 100)
same,Selectivity A431 EC50/HEKYVMA EC50,EGFR,E (E: >1 and < 5)
same,IC50,HER2YVMA,0.1 to 1 µM
same,IC50,EGFR WT,> 10 µM
Cc1cc(Nc2ncnc3sc4c(c23)CCN(C(=O)/C=C/CN(C)C)CC4)ccc1Oc1ccn2ncnc2c1 [Compound 168],EC50,EGFR,1 to 10 µM
same,Selectivity A431 EC50/BT474 EC50,EGFR,A (A: ≥100)
same,Selectivity A431 EC50/HEKYVMA EC50,EGFR,B (B: ≥ 20 and < 100)
same,IC50,HER2YVMA,0.1 to 1 µM
same,IC50,EGFR WT,> 10 µM
"Cc1ccc(Oc2ccc(Nc3ncnc4sc5c(c34)C(C)CN(C(=O)/C=C/CN(C)C)C5)cc2Cl)cn1 (centres unmarked) [Compound 171, (E)-1-(4-((3-Chloro-4-((6-methylpyridin-3-yl)oxy)phenyl)amino)-5-methyl-5,6-dihydropyrido[4′,3′:4,5]thieno[2,3-d]pyrimidin-7(8H)-yl)-4-(dimethylamino)but-2-en-1-one]",EC50,EGFR,< 0.1 µM
same,Selectivity A431 EC50/BT474 EC50,EGFR,A (A: ≥100)
same,Selectivity A431 EC50/HEKYVMA EC50,EGFR,E (E: >1 and < 5)
same,IC50,HER2YVMA,< 0.1 µM
same,IC50,EGFR WT,> 10 µM

# — patent publication US20240391931A1 (Bristol-Myers Squibb Company, priority 2021, published 2024)
